Data as given in patent US4443448A, “Indane derivatives, pharmaceutical compositions thereof and method of preparation” (priority 1980, dated 1984).

How the values were obtained:
methylphenidate = assay: Methylphenidate antagonism in mice; assay type: in vivo; details: for ED50: Mus musculus, ip, 2 h, read-out: MePh antag. ED50 2 hr i.p., mice, test substance i.p., 2 hr before methylphenidate 60 mg/kg s.c.
Procedure: Methylphenidate antagonism (ED50 mg/kg i.p.)
(§1) Perspex observation cages without bottom and lid, consisting of 5 sections each measuring 12×25×30 cm.
3×2 mice are used for each dose level. Two or 24 hours after injection of test substance, methylphenidate, 60 mg/kg, is injected s.c. After administration of methylphenidate the mice are placed in the observation cages, 2 in each cage, where they remain for exactly 1 hour. The cages were placed on corrugated paper, the corrugations facing upwards. It is examined whether the mice have been biting the corrugated paper or not. […] If one or more of the control pairs have not been biting, the test has to be repeated on a new set of mice.
The result is stated in fractions: 0/3, 1/3, 2/3 and 3/3 where 0, 1, 2 and 3 are the number of pairs which have not been biting on receipt of the dose in question.

amphetamine = assay: Amphetamine antagonism in rats; assay type: in vivo; details: rats, p.o., amphetamine 10 mg/kg base i.v.; for ED50: Rattus norvegicus, po, read-out: Amphetamine antag. ED50 p.o.
Procedure: Amphetamine antagonism (ED50 mg/kg i.p.)
as §1
The test substance is given p.o. in a reasonable dose based on the determined LD50. Two or 24 hours later an intravaneous injection of amphetamine sulphate 13.6 mg/kg (10 mg/kg amphetamine base) is given, after which the rats are placed individually in the cages. The cages are placed on white corrugated paper. Five rats are used for each dose level. Observations are made after 55 minutes and 65 minutes-observation time: 1 minute. The animals are observed for stereotypy (movements of the head, compulsive gnawing). […] If the compound has full antagonistic effect another group of rats is used at a lower dose. […] The result is stated as fractions: 0/5, 1/5, 2/5, 3/5, 4/5 and 5/5, where 0, 1, 2, 3, 4 and 5 indicate the number of rats which have not shown stereotypy at the dose in question. The results are calculated as ED50 in mg/kg.

in vivo [1] = assay: in vivo; parameters: species or system rats; details: for Ratio catalep./Amphet.: catalepsy ED50 / amphetamine antagonism ED50; for ED50: rat, in vivo, po, read-out: Catalep. (catalepsy wire mesh, rat, max, ED50)
Procedure: A vertical wire netting (50 cm×49 cm). The meshes (openings) of the netting are square (1 cm×1 cm). The wire diameter is 2 mm.
The animals are labeled and used in groups of five. The test substance is administered orally (p.o) at 4 dose levels selected from the fixed dose scale.
The animals are placed in the middle of the vertical wire netting 60, 120, 180, 240, 300 and 360 minutes after administration of the test compound. The animals are considered cataleptic when they remain immobile during a period of 15 seconds.
This cataleptic reaction is designated +. If the rats are "atonic" and passively slide down the wire mesh they are considered not cataleptic. If the animals climb up and down the wire mesh they are nor cataleptic.
In both situations the designation--is used.

[2] = Mouse grid shock (analgesia); assay type: in vivo; details: mice, minimal effective dose, in mg/kg
Procedure: The mouse grid consists of a perspex cage with wire grid bottom and a perspex lid, on which is placed a microphone sensitive to the frequency of a mouse squeak. A stimulator with motordriven potentiometer applies a sequence of square wave impulses of continuously increasing milliamperage to the grid. Frequency of impulses 20 cycles/sec., duration 5 msec. Milliamperage is recorded on a digital amperemeter connected to the stimulator. Activation of the microphone by a mouse-squeak cuts off the current and the final milliamperage appears on the meter.
Five mice are used for each dose level. Each mouse serves as its own control.
Prior to the administration of test substance the animals are placed on the grid one at a time, and the pain threshold is determined by increasing the current intensity until the mouse squeaks. The pain threshold may be read on the milliamperemeter. Fifteen minutes and 30 minutes after administration of test substance the mice are tested again and the pain thresholds recorded.
Analgesic effect is present, when the pain threshold is increased over the pre-dosing value (control value). The results are stated as % increase in pain threshold calculated on the basis of the control value.
The registration can also be done as an on-line procedure. In this case the punching instruction and punching cards will be provided automatically and the results will be registered as a minimal effective dose (MED) determined after van der Waerdens X-test.

[3] = Pharmacological animal tests, general statements on activity; details: in vivo
Procedure: After recrystallisation from 500 milliliters of methanol 18.5 grams of the (-)-isomer of Lu 13-092, D-(-)-tartrate were obtained, melting at 207°-209° C. […] The novel indanes of Formula I were tested pharmacologically in standard and reliable animal tests.

in vivo [4] = details: iv
[5] = tested on: 3H-DA uptake in striatal synaptosomes; assay: 3H-DA uptake in striatal synaptosomes in vitro; assay type: biochemical, rats; details: rat striatal synaptosomes, 12.5 nM 3H-DA, 37° C., pH 7.4
Procedure: ^3 H-DA uptake in striatal synaptosomes in vitro
0.32 M sucrose containing 1 mM Nialamide
Millipore filters (HAWPO 2500, 0.45μ)
3,4-dihydroxyphenylethylamine[ethyl-1-^3 H(N)]=^3 H-DA spc. act. app. 15 Ci/mmol, New England Nuclear Thomas Tissue Grinder, clearance 0.004-0.006 inch.
Rats are killed by a blow to their head, exsanguinated and their brains removed. The brain is placed on a precooled glassplate, and the two corpura striata are dissected out and gently homogenized in 40 volumes of ice cold 0.32 M sucrose containing 1 mM of nialamide using a hand homogenizer with teflon pestle. The P2 -fraction (synaptosomal fraction) is obtained by centrifugation (600 g, 10 min., 25000 g, 55 min. 4° C.) and suspended in 40 volumes of a modified Krebs-Ringer-phosphate buffer, pH 7.4. To 200 μl of the synaptosomal fraction on ice are added 3700 μl modified Krebs-Ringer-phosphate buffer--containing test compounds. After a preincubation at 37° C. for 5 min. […] The incubation is terminated by filtering the samples under vacuum through Millipore filters with a wash of 5 ml buffer containing 10 μM of unlabelled DA. After solubilizing the filters in 1 ml of cellosolve the radioactivity is determined by liquid scintillation counting after the addition of 10 ml of Insta-Gel. The unspecific binding of ^3 H-DA is determined by incubating control samples on ice instead of at 37° C.
All experiments are performed in triplicate.
The mean of all control samples and ice samples are calculated. […] The IC50-values are determined as the concentrations, at which the uptake are 50 percent of the uptake in control samples-uptake in ice samples.

[6] = rats, p.o., strongest effect within first 6 hours

Compound | ED50 (methylphenidate) [mg/kg] | ED50 (amphetamine) [mg/kg] | Ratio catalep./Amphet. (in vivo [1]) | ED50 (in vivo [1]; [6]) [mg/kg] | MED Grid Shock [2] | LD50 (in vivo [4]) [mg/kg] | IC50 [5] [nM] | also measured
CN1CCN([C@@H]2C[C@@H](c3ccc(F)cc3)c3ccc(F)cc32)CC1 (relative stereo) [Lu 13-092, trans-1-methyl-4-(3-(4'-fluorophenyl)-6-fluoro-1-indanyl)piperazine] | 4.2 | 14.8 | 5.5 | 81 | 1.3 | 80 | – | neuroleptic activity [3]: the neuroleptic active isomer is the trans-isomer
OCCCN1CCN([C@@H]2C[C@@H](c3ccc(F)cc3)c3ccc(F)cc32)CC1 (relative stereo) [Lu 14-036] | 1.6 | 2.3 | 1.6 | 3.7 | 5 | 129 | 73 | –
CN1CCN([C@@H]2C[C@@H](c3ccccc3)c3ccc(F)cc32)CC1 (relative stereo) [Lu 14-067] | > 40 | – | – | – | 5 | – | 68 | –
OCCN1CCN([C@@H]2C[C@@H](c3ccc(F)cc3)c3ccc(Cl)cc32)CC1 (relative stereo) [Lu 14-068] | 1.3 | 1.6 | 0.9 | 1.5 | 0.31 | 94 | 84 | –
CN1CCN([C@@H]2C[C@H](c3ccc(Cl)c(Cl)c3)c3ccccc32)CC1 (relative stereo) [Lu 17-109] | – | – | – | – | – | – | 4 | –
CN1CCN([C@@H]2C[C@@H](c3ccc(Cl)c(Cl)c3)c3ccccc32)CC1 (relative stereo) [Lu 17-110] | – | – | – | – | – | – | 11 | –
OCCN1CCN([C@@H]2C[C@H](c3ccc(Cl)c(Cl)c3)c3ccccc32)CC1 (relative stereo) [Lu 17-132] | – | – | – | – | – | – | 12 | –
OCCN1CCN([C@@H]2C[C@@H](c3ccc(Cl)c(Cl)c3)c3ccccc32)CC1 (relative stereo) [Lu 17-133] | – | – | – | – | – | – | 3 | –
OCCCCN1CCN([C@@H]2C[C@@H](c3ccc(F)cc3)c3ccc(F)cc32)CC1 (relative stereo) [Lu 18-080] | 2.9 | 3.5 | 6.2 | 21.8 | < 1.3 | 80 | 25 | –
OCCCN1CCN([C@@H]2C[C@@H](c3ccc(Cl)c(Cl)c3)c3ccccc32)CC1 (relative stereo) [Lu 18-081] | – | – | – | – | – | – | 15 | –
OCCCN1CCN([C@@H]2C[C@H](c3ccc(Cl)c(Cl)c3)c3ccccc32)CC1 (relative stereo) [Lu 18-082] | – | – | – | – | – | – | 6 | –
OCCCCN1CCN([C@@H]2C[C@H](c3ccc(Cl)c(Cl)c3)c3ccccc32)CC1 (relative stereo) [Lu 18-120] | – | – | – | – | – | – | 5 | –
OCCCCN1CCN([C@@H]2C[C@@H](c3ccc(Cl)c(Cl)c3)c3ccccc32)CC1 (relative stereo) [Lu 18-121] | – | – | – | – | – | – | 11 | –
OCC(O)CN1CCN(C2CC(c3ccc(F)cc3)c3ccc(F)cc32)CC1 (single isomer, unassigned) [Lu 17-066] | 1.6 | 18 | 8.9 | > 160 | 2.5 | > 160 | 27 | –
OCC(O)CN1CCN(C2CC(c3ccc(F)cc3)c3ccc(F)cc32)CC1 (single isomer, unassigned) [Lu 17-079] | – | – | – | – | – | – | 12 | –
OCC(O)CN1CCN(C2CC(c3ccc(Cl)c(Cl)c3)c3ccccc32)CC1 (single isomer, unassigned) [Lu 18-128] | – | – | – | – | – | – | 12 | –
OCC(O)CN1CCN(C2CC(c3ccc(Cl)c(Cl)c3)c3ccccc32)CC1 (single isomer, unassigned) [Lu 18-129] | – | – | – | – | – | – | 14 | –
CN1CCN(C2CC(c3ccc(F)cc3)c3ccc(F)cc32)CC1 (single isomer, unassigned; (-)) [Lu 17-152, (-) 1-Methyl-4-(3-(4'-fluorophenyl)-6-fluoro-1-indanyl)piperazine] | – | – | – | – | 5 | – | 88 | MePh antag. ED50 2 hr i.p. (methylphenidate; mice, test substance i.p., 2 hr before methylphenidate 60 mg/kg s.c., 120 min): 17 mg/kg; Amphetamine antag. ED50 p.o. (amphetamine): > 80 mg/kg; Catalep. (catalepsy wire mesh, rat, max, ED50) (in vivo [1]; [6]): > 320 mg/kg
CC(C)N1CCN(C2CC(c3ccc(F)cc3)c3ccc(F)cc32)CC1 (centres unmarked) [Lu 17-062, 1-Isopropyl-4-(3-(4'-fluorophenyl)-6-fluoro-1-indanyl)piperazine] | 1.3 | 10 | 1.4 | 14 | 5 | 113 | – | neuroleptic activity [3]: neuroleptical active isomer
CC(O)CN1CCN(C2CC(c3ccc(F)cc3)c3ccc(F)cc32)CC1 (centres unmarked) [Lu 17-144, 1-(2-hydroxy-1-propyl)-4-(3-(4'-fluorophenyl)-6-fluoro-1-indanyl)piperazine] | – | – | – | – | – | – | 18 | –
